Experiments:
[1] = Liver microsome stability, mouse; assay type: in vitro ADME
Method: (§1) Liver microsome assay was used to evaluate the metabolic stability of I-VI. The test article at the concentration of […] was incubated with 0.5 mg/mL liver microsome in the presence of NADPH and UDPGA as the co-factors for 0, 15, 30, 45 and 60 minutes. The incubation was carried out at 37° C. with 5% CO2 and saturating humidity. Disappearance of the test article was monitored by LC/MS/MS. the disappearance half-life (t1/2), intrinsic clearance and hepatic extraction ratio were determined.

[2] = Liver microsome stability, human; assay type: in vitro ADME
Method: as §1

For `COc1cc2ncc3ncn(Cc4ccc(S(N)(=O)=O)cn4)c3c2cc1OC` [Compound 12, 6-((7,8-dimethoxy-1H-imidazo[4,5-c]quinolin-1-yl)methyl)pyridine-3-sulfonamide], the “Hepatic extraction ratio Re” value ([1]; Mouse liver microsome) was 0.20, the half-life ([1]; liver microsomes, Mouse liver microsome 0.5 mg/mL, NADPH and UDPGA, 37° C., read-out: Half-life t1/2) was 3.95 h and the microsomal CLint ([1]; liver microsomes, Mouse liver microsome, read-out: Intrinsic clearance Cl′int, (μL/min/mg protein)) was 5.9 µL/min/mg. For the same molecule, the “Hepatic extraction ratio Re” value ([2]; Human liver microsome) was 0.14, the half-life ([2]; liver microsomes, Human liver microsome 0.5 mg/mL, NADPH and UDPGA, 37° C., read-out: Half-life t1/2) was 8.27 h and the microsomal CLint ([2]; liver microsomes, Human liver microsome, read-out: Intrinsic clearance Cl′int, (μL/min/mg protein)) was 2.8 µL/min/mg.

Source: US11673889B2, “Substituted imidazo[4,5-c][1,8]naphthyridines as phosphodiesterase inhibitors” (Nanjing Zhengxiang Pharmaceuticals Co., Ltd., priority 2019, dated 2023)
